Earlier results in patent US20240189233A1, “POWDERY PREPARATION AND METHOD FOR MANUFACTURING SAME” (ICHIMARU PHARCOS CO., LTD., priority 2021, published 2024).

Tested on: human breast cancer cells
Details: Cheng W L et al. (2011)

For C=C[C@H](O)C#CC#C[C@H](O)/C=C\CC/C=C\C [araliadiol], the growth inhibitory activity is listed as “growth inhibitory activity”.
